The values that follow come from article PMC11247487, “Discovery of Dual MER/AXL Kinase Inhibitors as Bifunctional Small Molecules for Inhibiting Tumor Growth and Enhancing Tumor Immune Microenvironment” (Journal of Medicinal Chemistry, 2024).

As a reminder, the IC50 is the midpoint of a concentration-inhibition curve. A low value points to greater potency.

The assay relates to Ba/F3-MER cells. In words: Cell viability assay (MTS). Type of assay: cell-based. As to conditions: 72 h.
Take `Nc1cccc(-c2c(-c3cc[nH]n3)oc3ncnc(Oc4ccc(NC(=O)c5cccn(-c6ccc(F)cc6)c5=O)cc4)c23)c1` [Compound 25, N-(4-{[5-(3-Aminophenyl)-6-(1H-pyrazol-3-yl)furo[2,3-d]pyrimidin-4-yl]oxy}phenyl)-1-(4-fluorophenyl)-2-oxo-1,2-dihydropyridine-3-carboxamide]: the IC50 is 77.1 nM.
`Nc1cccc(-c2coc3ncnc(Oc4ccc(NC(=O)c5cccn(-c6ccc(F)cc6)c5=O)cc4)c23)c1` [Compound 18, N-(4-{[5-(3-Aminophenyl)furo[2,3-d]pyrimidin-4-yl]oxy}phenyl)-1-(4-fluorophenyl)-2-oxo-1,2-dihydropyridine-3-carboxamide] returned an IC50 of 910 nM. This IC50 lies about 12-fold higher than the previous one.
Compound `CNCc1cccc(-c2c(-c3cnn(C)c3)oc3ncnc(Oc4ccc(NC(=O)c5cccn(-c6ccc(F)cc6)c5=O)cc4)c23)c1` [Compound 32, 1-(4-Fluorophenyl)-N-{4-[(5-{3-[(methylamino)methyl]phenyl}-6-(1-methyl-1H-pyrazol-4-yl)furo[2,3-d]pyrimidin-4-yl)oxy]phenyl}-2-oxo-1,2-dihydropyridine-3-carboxamide] came in with a 50% inhibitory concentration (IC50) of 5 nM.
In turn, `Cc1oc2ncnc(Oc3ccc(NC(=O)c4cccn(-c5ccc(F)cc5)c4=O)cc3)c2c1-c1cccc(N)c1` [Compound 20, N-(4-{[5-(3-Aminophenyl)-6-methylfuro[2,3-d]pyrimidin-4-yl]oxy}phenyl)-1-(4-fluorophenyl)-2-oxo-1,2-dihydropyridine-3-carboxamide] showed a 50% inhibitory concentration (IC50) of 211 nM.
With `CC(=O)Nc1ccc(-c2c(-c3cnn(C)c3)oc3ncnc(Oc4ccc(NC(=O)c5cccn(-c6ccc(F)cc6)c5=O)cc4)c23)cc1` [Compound 38, N-[4-({5-[4-(Acetylamino)phenyl]-6-(1-methyl-1H-pyrazol-4-yl)furo[2,3-d]pyrimidin-4-yl}oxy)phenyl]-1-(4-fluorophenyl)-2-oxo-1,2-dihydropyridine-3-carboxamide] the figure was 0.4 nM; with `Cn1cc(-c2oc3ncnc(Oc4ccc(NC(=O)c5cccn(-c6ccc(F)cc6)c5=O)cc4)c3c2-c2ccccc2N)cn1` [Compound 36, N-(4-{[5-(2-Aminophenyl)-6-(1-methyl-1H-pyrazol-4-yl)furo[2,3-d]pyrimidin-4-yl]oxy}phenyl)-1-(4-fluorophenyl)-2-oxo-1,2-dihydropyridine-3-carboxamide], 2.1 nM; with `Nc1cccc(-c2c(-c3ccsc3)oc3ncnc(Oc4ccc(NC(=O)c5cccn(-c6ccc(F)cc6)c5=O)cc4)c23)c1` [Compound 26, N-(4-{[5-(3-Aminophenyl)-6-(thiophen-3-yl)furo[2,3-d]pyrimidin-4-yl]oxy}phenyl)-1-(4-fluorophenyl)-2-oxo-1,2-dihydropyridine-3-carboxamide], 4.5 nM.
`Cn1cc(-c2cc3c(Oc4ccc(NC(=O)c5cccn(-c6ccc(F)cc6)c5=O)cc4)ncnc3o2)cn1` [Compound 27, 1-(4-Fluorophenyl)-N-(4-{[6-(1-methyl-1H-pyrazol-4-yl)furo[2,3-d]pyrimidin-4-yl]oxy}phenyl)-2-oxo-1,2-dihydropyridine-3-carboxamide]: half-maximal inhibition (IC50) required 172 nM.
With `Cc1noc(C)c1-c1oc2ncnc(Oc3ccc(NC(=O)c4cccn(-c5ccc(F)cc5)c4=O)cc3)c2c1-c1cccc(N)c1` [Compound 24, N-(4-{[5-(3-Aminophenyl)-6-(3,5-dimethyl-1,2-oxazol-4-yl)furo[2,3-d]pyrimidin-4-yl]oxy}phenyl)-1-(4-fluorophenyl)-2-oxo-1,2-dihydropyridine-3-carboxamide] the figure was 1050 nM.
With `Nc1cccc(-c2c(Br)oc3ncnc(Oc4ccc(NC(=O)c5cccn(-c6ccc(F)cc6)c5=O)cc4)c23)c1` [Compound 19, N-(4-{[5-(3-Aminophenyl)-6-bromofuro[2,3-d]pyrimidin-4-yl]oxy}phenyl)-1-(4-fluorophenyl)-2-oxo-1,2-dihydropyridine-3-carboxamide] the figure was 428 nM.
With `CN(C)c1cccc(-c2c(-c3cnn(C)c3)oc3ncnc(Oc4ccc(NC(=O)c5cccn(-c6ccc(F)cc6)c5=O)cc4)c23)c1` [Compound 30, N-[4-({5-[3-(Dimethylamino)phenyl]-6-(1-methyl-1H-pyrazol-4-yl)furo[2,3-d]pyrimidin-4-yl}oxy)phenyl]-1-(4-fluorophenyl)-2-oxo-1,2-dihydropyridine-3-carboxamide] the figure was 13.4 nM; with `Nc1cccc(-c2c(-c3cn[nH]c3)oc3ncnc(Oc4ccc(NC(=O)c5cccn(-c6ccc(F)cc6)c5=O)cc4)c23)c1` [Compound 21, N-(4-{[5-(3-Aminophenyl)-6-(1H-pyrazol-4-yl)furo[2,3-d]pyrimidin-4-yl]oxy}phenyl)-1-(4-fluorophenyl)-2-oxo-1,2-dihydropyridine-3-carboxamide], 10.6 nM.
`Cn1cc(-c2oc3ncnc(Oc4ccc(NC(=O)c5cccn(-c6ccc(F)cc6)c5=O)cc4)c3c2-c2ccc(N)cc2)cn1` [Compound 37, N-(4-{[5-(4-Aminophenyl)-6-(1-methyl-1H-pyrazol-4-yl)furo[2,3-d]pyrimidin-4-yl]oxy}phenyl)-1-(4-fluorophenyl)-2-oxo-1,2-dihydropyridine-3-carboxamide]: the IC50 came out at 1.2 nM.
Under `Cc1nn(C)cc1-c1oc2ncnc(Oc3ccc(NC(=O)c4cccn(-c5ccc(F)cc5)c4=O)cc3)c2c1-c1cccc(N)c1` [Compound 23, N-(4-{[5-(3-Aminophenyl)-6-(1,3-dimethyl-1H-pyrazol-4-yl)furo[2,3-d]pyrimidin-4-yl]oxy}phenyl)-1-(4-fluorophenyl)-2-oxo-1,2-dihydropyridine-3-carboxamide] stands 5.9 nM.
